Holding throughout (format): in vitro ADME
In one series the target is T1, human CYP3A4 (Homo sapiens, UniProt P08684).
T1 construct: made in house; host or cells: Escherichia coli (membrane fractions)
Kind of series: Steady-state kinetics of tenatoprazole oxidation by recombinant CYP3A4. To be noted: for kcat of product formation: substrate tenatoprazole (1–500 μM), recombinant CYP3A4 0.20 μM, 37 °C, 5 min, label = product formed. As to the method: Pooled liver microsomes from human samples were obtained from ThermoFisher Scientific (Waltham, MA, USA). […] Membrane fractions expressing both P450 and CPR of E. coli were prepared as described previously and were used for the catalytic activity assays. […] The reaction was started by adding NGS and the incubation was continued for the indicated time at 37 °C. Incubation was then stopped by adding ice-chilled ethyl acetate (0.50 mL) and omeprazole (IS) was added to a final concentration of 20 μM. […] Phenomenex, Torrance, CA, USA). The products formed were analyzed by HPLC at […]. The HPLC profile of the authentic chemicals (i.e., tenatoprazole, tenatoprazole sulfide, and their metabolites) were used to identify the major metabolites of tenatoprazole and tenatoprazole sulfide produced by the recombinant P450s. […] The kinetic parameters (kcat and Km) were determined by using a Michaelis-Menten nonlinear regression analysis with GraphPad Prism (GraphPad Software, San Diego, CA, USA). To further characterize the nature of the metabolites, the reaction mixtures were additionally analyzed by a 6530 Quadrupole Time-of-Flight (QTOF) mass spectrometer (MS) (Agilent, Santa Clara, CA, USA) coupled with a 1290 Infinity ultra-performance liquid chromatography (UPLC) system (Agilent). […] The reaction was initiated by adding NGS at 37 °C. […] Then, the upper layer was transferred to a glass tube and dried under nitrogen stream. The residues were reconstituted in 0.30 mL acetonitrile, then 1 μL samples were injected into an LC-MS system. The analytical column was a Hypersil Gold C18 column (100 × 2.1 mm, 1.9 μm; ThermoFisher Scientific). […] A gradient program was used for HPLC separation, and the flow rate was 0.4 mL/min. […] The column and autosampler were kept at 35 °C and 4 °C, respectively, during analysis. Electrospray ionization was performed in the positive ion mode. The sheath gas flow rate was 8 L/min. The flow rate of drying gas was 12 L/min at 350 °C, and the nebulizer's temperature was set at 350 °C. The capillary voltage was 4500 V in the positive mode, and that of the fragmentor was 175 V. Data acquisition were done over a scan range from 50 m/z to 1000 m/z in the centroid mode. A reference compound (C18H18O6N3P3F24; [M+H]^+ = 922.0098) was used to correct all of the masses. Tandem mass spectrometry (MS/MS) data were acquired in profile mode via autoanalysis for structural characterization with 30 eV of the collision energy.

For a further series, the target named is T2, human CYP2C19 (Homo sapiens, UniProt P33261).
T2 construct: made in house; host or cells: Escherichia coli (membrane fractions)
T2 sequence (P33261 whole entry): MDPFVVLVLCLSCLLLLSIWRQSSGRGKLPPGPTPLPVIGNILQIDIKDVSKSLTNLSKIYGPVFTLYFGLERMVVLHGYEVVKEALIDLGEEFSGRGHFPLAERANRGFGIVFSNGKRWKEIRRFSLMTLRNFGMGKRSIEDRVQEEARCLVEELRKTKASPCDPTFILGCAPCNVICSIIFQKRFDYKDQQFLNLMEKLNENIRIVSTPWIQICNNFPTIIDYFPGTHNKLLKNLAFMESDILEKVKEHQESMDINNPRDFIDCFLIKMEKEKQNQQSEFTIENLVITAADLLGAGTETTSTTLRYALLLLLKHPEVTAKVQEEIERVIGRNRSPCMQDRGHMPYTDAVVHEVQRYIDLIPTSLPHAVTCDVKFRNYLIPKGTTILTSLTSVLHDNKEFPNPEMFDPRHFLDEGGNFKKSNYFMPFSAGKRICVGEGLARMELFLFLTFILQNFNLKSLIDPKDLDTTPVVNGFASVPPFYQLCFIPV
Kind of series: Steady-state kinetics of tenatoprazole oxidation by recombinant CYP2C19. Here is the method:
Pooled liver microsomes from human samples were obtained from ThermoFisher Scientific (Waltham, MA, USA). […] Membrane fractions expressing both P450 and CPR of E. coli were prepared as described previously and were used for the catalytic activity assays. […] The reaction was started by adding NGS and the incubation was continued for the indicated time at 37 °C. Incubation was then stopped by adding ice-chilled ethyl acetate (0.50 mL) and omeprazole (IS) was added to a final concentration of 20 μM. […] Phenomenex, Torrance, CA, USA). The products formed were analyzed by HPLC at […]. […] The kinetic parameters (kcat and Km) were determined by using a Michaelis-Menten nonlinear regression analysis with GraphPad Prism (GraphPad Software, San Diego, CA, USA).

Another series concerns the target T3, CYP2D6 (Homo sapiens, UniProt P10635).
T3 construct: made in house; host or cells: Escherichia coli (membrane fractions)
Description: Tenatoprazole oxidation by recombinant CYP2D6. To be noted: substrate tenatoprazole 0.10 mM, 0.20 μM CYP2D6. As to the method: (§1) Pooled liver microsomes from human samples were obtained from ThermoFisher Scientific (Waltham, MA, USA). Recombinant human P450s were heterologously expressed in Escherichia coli with a pCW vector containing human P450 cDNA (CYP 3A4, 2C9, 2C19, 1A2, 1B1, 2E1, 2D6, and 2A6) and rat NADPH-P450 reductase (CPR). Membrane fractions expressing both P450 and CPR of E. coli were prepared as described previously and were used for the catalytic activity assays.
(§2) The reaction mixture included 0.20 μM P450, 0.40 μM CPR, and tenatoprazole (0.10 mM) in 0.25 mL of 0.10 M potassium phosphate buffer (pH 7.4). The reaction was started by adding NGS and the incubation was continued for the indicated time at 37 °C. Incubation was then stopped by adding ice-chilled ethyl acetate (0.50 mL) and omeprazole (IS) was added to a final concentration of 20 μM. The mixtures were vortexed for 2 min, centrifuged at 1000× g for 20 min, and then the organic layer was taken for drying under nitrogen gas stream. The residues were dissolved in 180 μL of HPLC mobile phase and 30 μL was injected onto a Gemini C18 column (4.6 × 150 mm, 5 μm; Phenomenex, Torrance, CA, USA). The products formed were analyzed by HPLC at A302. […]

A further series concerns the target T4, CYP2C9 (Homo sapiens, UniProt P11712).
T4 construct: made in house; host or cells: Escherichia coli (membrane fractions)
Kind of series: Tenatoprazole oxidation by recombinant CYP2C9. To be noted: substrate tenatoprazole 0.10 mM, 0.20 μM CYP2C9. As to the method: as §1, §2

Setting [1] is: 5′-OH tenatoprazole formation from tenatoprazole.

Values joined by “and” are separate entries in the source; they are usually repeats but may differ in a detail not shown here. Equal values may be shown once.

T1 sequence (P08684 whole entry): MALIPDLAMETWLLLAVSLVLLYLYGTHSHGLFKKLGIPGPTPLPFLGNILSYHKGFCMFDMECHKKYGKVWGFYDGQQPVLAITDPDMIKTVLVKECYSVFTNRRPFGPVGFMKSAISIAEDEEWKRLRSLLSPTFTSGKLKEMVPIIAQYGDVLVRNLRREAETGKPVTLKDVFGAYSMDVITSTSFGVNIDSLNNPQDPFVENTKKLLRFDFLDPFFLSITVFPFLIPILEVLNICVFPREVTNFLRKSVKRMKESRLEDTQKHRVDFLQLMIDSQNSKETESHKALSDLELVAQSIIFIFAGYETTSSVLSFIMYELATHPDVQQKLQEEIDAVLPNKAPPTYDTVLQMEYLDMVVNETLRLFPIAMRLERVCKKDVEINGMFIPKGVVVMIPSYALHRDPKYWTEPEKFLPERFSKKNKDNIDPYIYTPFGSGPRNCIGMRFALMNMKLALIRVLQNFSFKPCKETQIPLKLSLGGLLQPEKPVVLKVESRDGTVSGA
T4 sequence (P11712 whole entry): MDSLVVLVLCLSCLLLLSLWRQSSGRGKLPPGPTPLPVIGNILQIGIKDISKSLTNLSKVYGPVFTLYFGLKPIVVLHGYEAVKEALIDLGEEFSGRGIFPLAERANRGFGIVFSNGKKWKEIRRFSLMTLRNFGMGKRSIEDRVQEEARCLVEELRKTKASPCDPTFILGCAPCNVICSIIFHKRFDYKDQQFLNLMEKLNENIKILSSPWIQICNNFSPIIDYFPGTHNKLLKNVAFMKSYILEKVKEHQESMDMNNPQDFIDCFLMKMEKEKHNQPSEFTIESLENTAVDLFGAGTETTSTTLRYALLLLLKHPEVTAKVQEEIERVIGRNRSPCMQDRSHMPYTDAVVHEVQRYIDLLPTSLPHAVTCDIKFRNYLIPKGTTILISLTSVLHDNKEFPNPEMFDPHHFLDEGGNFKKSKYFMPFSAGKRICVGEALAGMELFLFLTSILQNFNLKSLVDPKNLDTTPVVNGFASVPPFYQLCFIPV
T3 sequence (P10635 whole entry): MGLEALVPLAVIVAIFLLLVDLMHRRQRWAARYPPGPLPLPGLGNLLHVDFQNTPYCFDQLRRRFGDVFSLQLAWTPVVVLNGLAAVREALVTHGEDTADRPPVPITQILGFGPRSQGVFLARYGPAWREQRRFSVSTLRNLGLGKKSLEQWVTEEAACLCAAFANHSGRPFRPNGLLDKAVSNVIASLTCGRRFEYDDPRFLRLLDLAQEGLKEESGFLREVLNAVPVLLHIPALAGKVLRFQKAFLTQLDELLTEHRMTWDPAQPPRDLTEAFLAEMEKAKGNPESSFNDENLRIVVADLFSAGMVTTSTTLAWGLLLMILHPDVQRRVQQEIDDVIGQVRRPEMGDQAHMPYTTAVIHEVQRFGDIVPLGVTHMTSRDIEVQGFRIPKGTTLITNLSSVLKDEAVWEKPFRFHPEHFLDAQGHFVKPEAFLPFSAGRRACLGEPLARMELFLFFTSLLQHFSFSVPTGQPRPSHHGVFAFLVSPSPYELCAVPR

For `COc1ccc2[nH]c(S(=O)(=O)Cc3ncc(C)c(OC)c3C)nc2n1` [tenatoprazole sulfone], on human CYP3A4, the “kcat of product formation” value was 0.045 s⁻¹ and 0.045 ± 0.013 s⁻¹.
For `COc1ccc2[nH]c([S+]([O-])Cc3ncc(CO)c(OC)c3C)nc2n1` (stereo not shown) [5′-OH tenatoprazole, 5′-hydroxy tenatoprazole], at human CYP2C19 (setting [1]), the “fold higher catalytic efficiency of CYP2C19 than CYP3A4” value was determined as 63 fold. The “kcat of product formation” value on human CYP2C19 (substrate tenatoprazole (1–500 μM), recombinant CYP2C19 0.20 μM, 37 °C, 5 min, label = product formed) is 0.0667 s⁻¹ and 0.0667 ± 0.0033 s⁻¹; on human CYP3A4, 0.105 s⁻¹ and 0.105 ± 0.005 s⁻¹. Also, the “formation rate of metabolite” value at CYP2D6 and on CYP2C9 was 0.1 min⁻¹ each time. Further, on human CYP3A4 (setting [1]), the “fold higher Km of CYP3A4 than CYP2C19” value is given as 100 fold.

The values above are taken from article PMC9863764, “Roles of Human Liver Cytochrome P450 Enzymes in Tenatoprazole Metabolism” (Pharmaceutics, 2022).
